Source: PubChem BioAssay (NCI)
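Cultured in 96-well plates, cells were exposed to test compound for 48 hours across five concentrations. Abbreviation: GI50, concentration required for 50% inhibition of growth. TGI: total growth inhibition.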

What was measured:
Experiment in all cases: NCI tumour cell line growth inhibition, 48 h
DMS 273 small cell lung = test system: DMS 273 small cell lung
SR leukemia = test system: SR leukemia
TK-10 renal = test system: TK-10 renal
BT-549 breast = test system: BT-549 breast
DU-145 prostate = test system: DU-145 prostate
HS 578T breast = test system: HS 578T breast
MCF7 breast = test system: MCF7 breast
MDA-MB-231 breast = test system: MDA-MB-231 breast
MDA-MB-435 = test system: MDA-MB-435
MDA-N = test system: MDA-N
NCI/ADR-RES ovarian = test system: NCI/ADR-RES ovarian
PC-3 prostate = test system: PC-3 prostate
SK-MEL-5 melanoma = test system: SK-MEL-5 melanoma
T-47D breast = test system: T-47D breast
P388 leukemia = test system: P388 leukemia
P388/ADR leukemia = test system: P388/ADR leukemia
SN12K1 renal = test system: SN12K1 renal
RXF-631 renal = test system: RXF-631 renal

SMILES	TGI (DMS 273 small cell lung)	TGI (SR leukemia)	TGI (TK-10 renal)	TGI (SK-MEL-5 melanoma)	further results
CCOC(C)OC1CC(n2cc(C)c(=O)[nH]c2=O)OC1CO (stereo not drawn)	> 100 µM	> 100 µM	> 100 µM		
CCOC(=O)Cn1c(=O)c(C)cn(COCCO)c1=O			> 100 µM	> 100 µM	TGI (BT-549 breast): > 100 µM; TGI (DU-145 prostate): > 100 µM; TGI (HS 578T breast): > 100 µM; TGI (MCF7 breast): > 100 µM; TGI (MDA-MB-231 breast): > 100 µM; TGI (MDA-MB-435): > 100 µM; TGI (MDA-N): > 100 µM; TGI (NCI/ADR-RES ovarian): > 100 µM; TGI (PC-3 prostate): > 100 µM; TGI (T-47D breast): > 100 µM
CC1OC(=O)C(C(C)C)NC(=O)C(C(C)C)OC(=O)C(C(C)C)NC(=O)C(C)OC(=O)C(C(C)C)NC(=O)C(C(C)C)OC(=O)C(C(C)C)NC(=O)C(C)OC(=O)C(C(C)C)NC(=O)C(C(C)C)OC(=O)C(C(C)C)NC1=O (stereo not drawn)	0.0141 µM				TGI (MCF7 breast): 0.0686 µM; GI50 (NCI/ADR-RES ovarian): 0.0129 µM; TGI (NCI/ADR-RES ovarian): 0.117 µM; TGI (P388 leukemia): 0.25 µM; TGI (P388/ADR leukemia): 0.0325 µM; TGI (SN12K1 renal): 0.816 µM; TGI (T-47D breast): 0.0138 µM
CCOC(=O)C1=C(C)N(C2OC(COC(=O)c3ccccc3)C(OC(=O)c3ccccc3)C2OC(=O)c2ccccc2)C(=S)NC1c1ccccc1 (stereo not drawn)		73.2 µM		42.8 µM	
CCN(CC)CCO[Si](OCCN(CC)CC)(OCCN(CC)CC)OCCN(CC)CC	> 100 µM	> 100 µM	> 100 µM	> 100 µM	TGI (RXF-631 renal): > 100 µM
O=C(CCC1CCCCN1)Nc1ccc2c(c1)C(=O)c1ccc(NC(=O)CCN3CCCCC3)cc1C2=O (stereo not drawn)	7.55 µM	> 100 µM	9.42 µM	3.27 µM	
CN/N=C(\C(=O)Nc1ccc(C)c(C)c1)C(C(=O)OC)c1nc2ccc([N+](=O)[O-])cc2[nH]c1=O (stereo not drawn)	> 100 µM	> 100 µM	> 100 µM	> 100 µM	
